Tests used:
[1] = test system: cell migration induced by MCP-1 in human promonocytic leukemia cell line, THP-1; assay: Activity for inhibiting cell migration induced by MCP-1 (THP-1 cells); assay type: cell-based; details: 20 ng/ml recombinant human MCP-1, 37° C., two hours
Protocol: The cell migration induced by the monocyte chemoattractant protein MCP-1/MCAF was measured for the purpose of investigating the activity of the tested compounds shown in Table 1 in inhibiting cell migration by the following manner in accordance with the method of Falk et al. (J. Immunol. Methods, 33, 239-247 (1980)) using human promonocytic leukemia cell line, THP-1 (ATCC TIB203). That is, THP-1 cells diluted to 2×10^6 /ml by 10% fetal calf serum: FCS-containing RPMI-1640 medium (made by Flow Laboratories) were added to the upper chamber (200 μl) of the 96-well microchemotaxis chamber (made by Neuroprobe Inc.) while recombinant human MCP-1 (made by Peprotech Co.) diluted by the same medium to a final concentration of 20 ng/ml was added to the bottom chamber (35 μl). A polycarbonate filter (pore size of 5 μm, PVP-free, made by Neuroprobe Co) was affixed between the two. Incubation was performed at 37° C. in the presence of 5% CO2 for two hours. The filter was taken out, then the cells migrating to the bottom surface of the filter were fixed and stained by a Diff Quick solution (made by International Reagents Co.), then were measured by a plate reader (made by Molecular Device Co.) at a measurement wavelength of 550 nm. The mean value of three wells was determined and used as the indicator of the number of the migrating cells. At this time, the text compounds were added at various concentrations along with the THP-1 cells to the top chambers and the activity in inhibiting cell migration was determined. The percent of inhibition of cell migration was found by dividing the {(number of migrating cells caused by the MCP-1 added to the bottom chamber in the case of the test compound being added to the top chamber)--(number of migrating cells in the case of no test compound being added to the top chamber and no MCP-1 being added to the bottom chamber)} by the {(number of migrating cells caused by the MCP-1 added to the bottom chamber in the case of no test compound being added to the top chamber)--(number of migrating cells in the case of no test compound being added to the top chamber and no MCP-1 being added to the bottom chamber)}.

rat platelet = assay: Rat platelet aggregation inhibiting activity; assay type: cell-based; details: rat platelet rich plasma; adenosine 2-phosphate induced; 37° C., one minute
Protocol: Wistar rats (males, approximately 400 g) were made to fast for one day, the entire blood was removed from the chest artery under anesthesia by ether, then a 1/10 volume of 3.8% aqueous solution of sodium citrate was added and immediately mixed in. The solution was centrifuged at 1000 rpm for 10 minutes, then the upper layer was used as the platelet rich plasma. The lower layer was centrifuged at 3000 rpm for 10 minutes and the upper layer of that was used as the platelet poor plasma. The platelet rich plasma was diluted by the platelet poor plasma to give a number of platelets of 3.5×10^8 /mm^3. This was used for the measurement. Note that the measurement of the platelets was performed using an automatic blood cell counter MEK-4500 (Nihon Koden). The measurement of the platelet aggregation was performed by measuring the turbidity using an NBS HEMA TRACER 801 (M.C. Medical). 90 μl of the platelet solution was inserted in a cuvette, then 5 μl each of the test compounds was added to give the target final concentration. The result was heated for one minute at 37° C., then 5 μl of a 100 μM aqueous solution of adenosine 2-phosphate (M.C. Medical) was added to induce platelet aggregation. The aggregation inhibiting activity was found from the following formula.
Aggregation inhibiting rate (%)={1-(maximum change of turbidity at time of
addition of drug)/(maximum change of turbidity at time of non-addition of
Further, the concentration of the compound giving 50% inhibition was used as the IC50.

Structure (SMILES)	IC50 [1]	IC50 ([1]; Homo sapiens, THP-1, 2 h)	also measured
CCCC(=O)OC1=C(SCCCCCC(=O)OC)[C@@H](/C=C/C(O)Cc2ccc(Cl)cc2)[C@H](O)C1 (stereo partly drawn) [drawing 165]	< 0.1 µM	–	–
CCCC(=O)OC1=C(SCCCCCC(=O)OC)[C@@H](/C=C/C(O)Cc2cccc(OC)c2)[C@H](O)C1 (stereo partly drawn) [drawing 157]	0.033 µM	–	–
CCCC(=O)OC1=C(CCCCCCC(=O)OC)[C@@H](/C=C/C(O)Cc2ccccc2)[C@H](O)C1 (stereo partly drawn) [drawing 168]	0.005 µM	–	–
CCCC(=O)OC1=C(SCCCCCC(=O)OC)[C@@H](/C=C/C(O)Cc2cccc(C(=O)OC)c2)[C@H](O)C1 (stereo partly drawn) [drawing 160]	0.0023 µM	–	–
CCCC(=O)OC1=C(SCCCCCC(=O)OC)[C@@H](/C=C/C(O)c2ccccc2)[C@H](O)C1 (stereo partly drawn)	–	> 1 µM	–
CCCCC(C)C[C@H](O)/C=C/[C@@H]1C(SCCCCCC(=O)OC)=C(OC(=O)c2ccccc2)C[C@H]1O (stereo partly drawn) [drawing 179]	–	–	IC50 (rat platelet): 0.7 µM
CCCC(=O)OC1=C(SCCCCCC(=O)OC)[C@@H](/C=C/[C@@H](O)C2CCCCC2)[C@H](O)C1 [drawing 123]	–	0.0025 µM	–
CCCC(=O)OC1=C(SCCCCCC(=O)OC)[C@@H](/C=C/C(O)C2CCCCC2)[C@H](O)C1 (stereo partly drawn)	–	0.1 µM	–
CCCCOC(=O)CCCCCSC1=C(OC(=O)CCC)C[C@@H](O)[C@@H]1/C=C/[C@@H](O)CC(C)CCCC (stereo partly drawn)	–	–	IC50 (rat platelet): 0.221 µM
CCCC(=O)OC1=C(SCCCCCC(=O)OC)[C@@H](/C=C/C(O)C(c2ccccc2)c2ccccc2)[C@H](O)C1 (stereo partly drawn) [drawing 142]	1.3 µM	–	–
CCCC(=O)OC1=C(SCCCCCC(=O)OC)[C@@H](/C=C/C(O)Cc2ccc(C)cc2)[C@H](O)C1 (stereo partly drawn) [drawing 148]	> 10 µM	–	–
CCCC(=O)OC1=C(SCCCCCC(=O)OC)[C@@H](/C=C/C(O)Cc2ccc([N+](=O)[O-])cc2)[C@H](O)C1 (stereo partly drawn) [drawing 164]	0.0036 µM	–	–
CCCCC(C)C[C@H](O)/C=C/[C@@H]1C(SCCC/C=C/C(=O)OC)=C(OC(=O)CCC)C[C@H]1O (stereo partly drawn)	–	0.006 µM	–
CCCC(=O)OC1=C(SCCCCCC(=O)OC)[C@@H](/C=C/C(O)Cc2ccccc2C)[C@H](O)C1 (stereo partly drawn) [drawing 161]	0.19 µM	–	–
CCCCC[C@H](O)/C=C/[C@@H]1C(SCCCCCC(=O)O)=C(OC(=O)CCC)C[C@H]1O [drawing 181]	–	–	IC50 (rat platelet): 0.3 µM
CCCC(=O)OC1=C(SCCCCCC(=O)OC)[C@@H](/C=C/C(O)Cc2ccccc2C)[C@H](O)C1 (stereo partly drawn) [drawing 162]	0.0044 µM	–	–
CCCC(=O)OC1=C(SCCCCCC(=O)OC)[C@@H](/C=C/C(O)Cc2cccc(Cl)c2)[C@H](O)C1 (stereo partly drawn) [drawing 156]	0.0004 µM	–	–
CCCC(=O)OC1=C(SCCCCCC(=O)OC)[C@@H](/C=C/[C@@H](O)C2CCCCC2)[C@H](O)C1 [drawing 177]	–	–	IC50 (rat platelet): 0.073 µM
CCCC(=O)OC1=C(SCCCCCC(=O)OC)[C@@H](/C=C/C(O)Cc2ccccc2)[C@H](O)C1 (stereo partly drawn) [drawing 131]	–	0.0083 µM	–
CCCC(=O)OC1=C(SCCCCCC(=O)OC)[C@@H](/C=C/[C@@H](O)C2CCCC2)[C@H](O)C1 [drawing 121]	–	0.00051 µM	–
CCCCCC(O)CC[C@@H]1C(SCCCCCC(=O)OC)=C(OC(=O)CCC)C[C@H]1O (stereo partly drawn)	–	0.00014 µM	–
CCCC(=O)OC1=C(SCCCCCC(=O)OC)[C@@H](/C=C/C(O)C(C)(C)c2ccccc2)[C@H](O)C1 (stereo partly drawn) [drawing 136]	0.013 µM	–	–
CCCCC[C@H](O)/C=C/[C@@H]1C(SCCCCCC(=O)O)=C(OC(=O)CCC)C[C@H]1O [drawing 126]	–	0.00081 µM	–
CCCCC(C)C[C@H](O)/C=C/[C@@H]1C(SCCCCCC(=O)OC)=C(OC(=O)c2ccccc2)C[C@H]1O (stereo partly drawn) [drawing 129]	–	0.81 µM	–
CCCC(=O)OC1=C(SCCCCCC(=O)OC)[C@@H](/C=C/[C@@H](O)CCOCC)[C@H](O)C1	–	0.12 µM	–
CCCC(=O)OC1=C(SCCCCCC(=O)OC)[C@@H](/C=C/C(O)C(C)c2ccccc2)[C@H](O)C1 (stereo partly drawn) [drawing 139]	0.006 µM	–	–
CCCC(=O)OC1=C(SCCCCCC(=O)OC)[C@@H](/C=C/C(O)C(C)(C)c2ccccc2)[C@H](O)C1 (stereo partly drawn) [drawing 135]	0.1 µM	–	–

— US5731452A, “7-thiaprostaglandins and method of production thereof” (Teijin Limited, priority 1994, dated 1998)
